Reference: patent publication US11896673B2, “Glucose responsive insulin delivery compositions and methods” (NORTH CAROLINA STATE UNIVERSITY, priority 2016, dated 2024)

Assays:
[1] = tested on: STZ-induced type 1 diabetic mice; experiment: In vivo bioactivity comparison of native insulin and Glu-Insulin; conditions: same insulin concentration 5 mg/kg
From the text: Glucose was conjugated to insulin via a bifunctional maleimide linker (FIG. 2). Glu-Insulin was clearly identified by the sodium dodecyl sulfate polyacrylamide gel electrophoresis (SDS-PAGE) and matrix-assisted laser desorption/ionization mass spectrometry (MALDI MS) (FIG. 3A-B). As calculated by MALDI-MS, two glucose molecules are conjugated to each insulin molecule (feed molar ratio of glucose to insulin: 100:1). […] In short, the modification of insulin with glucose has a statistically insignificant impact on bioactivity relative to unmodified insulin.

[2] = tested on: mRBCs; experiment: Binding/loading of Glu-Insulin to mouse RBCs (confocal, flow cytometry, ELISA); conditions: incubated overnight, confocal fluorescence microscopy
Method: Preparation of insulin loaded RBCs. Whole blood was collected from the B16 mice or from a human volunteer (The study protocol was approved by the Institutional Review Board at North Carolina State University). RBCs were separated from the whole blood by centrifugation (1000 g, 10 min) and washed thrice with cold PBS (300 mOsm, pH=8.0) to remove the glucose intracellularly. To load the insulin to RBC membrane, Glu-Insulin (0.5 mg/ml) was incubated with […] RBCs (1×10^8) under gentle stirring at 4° C. overnight. RBCs were washed thrice with cold PBS (300 mOsm, pH 8) to remove the unconjugated Glu-Insulin. Bound insulin was determined by ELISA assay.

[3] = tested on: STZ-induced diabetic mice; experiment: Blood glucose levels in STZ-induced diabetic mice after treatment; type: in vivo; conditions: i.v., 5 mg/kg insulin
Method: In Vivo Studies Using STZ-Induced Diabetic Mice. STZ-induced male C57B6 diabetic mice were purchased from Jackson Labs (USA) and used under protocols approved by the Institutional Animal Care and Use Committee at North Carolina State University. For in vivo circulating behavior of insulin-RBC, mRBCs were coupled with FITC after loading with insulin, 3 mice were injected i.v. with autologous insulin−mRBCs. Then ˜3 μL of blood was extracted from the tail vein at different time points and then dispersed in 0.5 mL of PBS with anticoagulants. Flow cytometry measurement was applied to determine the percentages of insulin−mRBCs (positive in FITC) in the blood samples. […] The BG level was measured from tail vein blood samples (approximately 3 μL) of mice using the Clarity GL2Plus glucose meter (Clarity Diagnostics) at different time points. […] Plasma insulin concentrations were determined using the human insulin ELISA kit (Calbiotech, USA). The efficacy of insulin−mRBCs for treatment of hyperglycemia in STZ-induced type 1 diabetic mice (Like, A A, et al. Science 193, 415-417 (1976)) was also assessed. […] The BG levels of treated mice were then monitored over time.

[4] = tested on: STZ-induced diabetic mice; experiment: Intraperitoneal glucose tolerance test (IPGTT) 1.5 h after administration; type: in vivo; conditions: IPGTT 1.5 hours after i.v. administration
Method: In Vivo Studies Using STZ-Induced Diabetic Mice. STZ-induced male C57B6 diabetic mice were purchased from Jackson Labs (USA) and used under protocols approved by the Institutional Animal Care and Use Committee at North Carolina State University. For in vivo circulating behavior of insulin-RBC, mRBCs were coupled with FITC after loading with insulin, 3 mice were injected i.v. with autologous insulin−mRBCs. Then ˜3 μL of blood was extracted from the tail vein at different time points and then dispersed in 0.5 mL of PBS with anticoagulants. Flow cytometry measurement was applied to determine the percentages of insulin−mRBCs (positive in FITC) in the blood samples. […] The BG level was measured from tail vein blood samples (approximately 3 μL) of mice using the Clarity GL2Plus glucose meter (Clarity Diagnostics) at different time points. […] Plasma insulin concentrations were determined using the human insulin ELISA kit (Calbiotech, USA). […] To quantitate the glucose response to the various insulin formulations (Yu J, et al. Proc. Natl. Acad. Sci. U.S.A. 112, 8260-8265 (2015); Chou DH-C, et al. Proc. Natl. Acad. Sci. U.S.A. 112, 2401-2406 (2015)), the area under the curve was calculated for each group between 90 and 200 min. […] Furthermore, plasma insulin levels of diabetic mice were monitored over time by ELISA after IPGTT (FIG. 8D).

[5] = tested on: healthy mice; experiment: Hypoglycemia study in healthy mice under normoglycemic conditions; conditions: mouse, in vivo
Method: FIG. 8F is a bar graph showing the quantification of the hypoglycemia index, calculated from the difference between the initial and nadir BG readings divided by the time at which nadir was reached. The error bars are based on the SD of five mice per group. (P values: *P<0.05) Next, the potential for insulin−mRBCs to induce hypoglycemia was studied in healthy mice under normoglycemic conditions (FIG. 8E). […] The corresponding hypoglycemia index was calculated to assess the risk of hypoglycemia (Yu J, et al. Proc. Natl. Acad. Sci. U.S.A. 112, 8260-8265 (2015); Chou DH-C, et al. Proc. Natl. Acad. Sci. U.S.A. 112, 2401-2406 (2015)).

[6] = target: T1, GLUT1 (Rattus norvegicus, UniProt P11167); experiment: Binding of free GLUT1 protein and Glu-Insulin in vitro (centrifugal filter); conditions: overnight incubation, MWCO=10 kDa filter
T1 construct: His6 (pET-28a vector-encoded) (N); T7 tag (pET-28a vector-encoded, upstream of BamHI site) (N); made in house; host or cells: E. coli Rosetta (DE3) pLysS
T1 sequence (P11167 1-492): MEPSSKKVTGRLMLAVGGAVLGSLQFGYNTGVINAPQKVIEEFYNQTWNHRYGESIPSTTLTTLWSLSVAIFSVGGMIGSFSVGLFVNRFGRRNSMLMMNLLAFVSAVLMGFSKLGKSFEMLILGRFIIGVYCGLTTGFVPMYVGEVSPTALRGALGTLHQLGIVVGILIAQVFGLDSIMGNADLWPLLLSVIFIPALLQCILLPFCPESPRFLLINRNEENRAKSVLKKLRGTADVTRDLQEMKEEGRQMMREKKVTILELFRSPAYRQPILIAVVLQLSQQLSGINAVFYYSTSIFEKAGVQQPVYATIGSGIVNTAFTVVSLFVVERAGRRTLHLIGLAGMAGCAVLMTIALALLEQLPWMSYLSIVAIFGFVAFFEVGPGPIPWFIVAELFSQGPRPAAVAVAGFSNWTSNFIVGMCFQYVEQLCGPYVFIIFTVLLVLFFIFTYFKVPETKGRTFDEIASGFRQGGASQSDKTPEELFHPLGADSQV
Method: Glucose modified insulin was mixed with GLUT1 protein at a molar ratio of 1.2:1 for 12 hours at 4° C. Free Glu-insulin were removed by the centrifugal filter device (MWCO=10 kDa). The obtained Glu-Insulin was stored at 4° C. until use. We first examined the specific binding affinity of free GLUT1 proteins and Glu-Insulin in vitro. We incubated the GLUT1 with Glu-Insulin overnight, free Glu-Insulin was removed by centrifugal filter device (MWCO=10 kDa).

[7] = tested on: mRBCs
Method: The mRBCs were incubated with Glu-Insulin overnight and imaged using the confocal fluorescence microscope to determine whether Glu-Insulin can bind to mRBCs via the specific glucose-GLUT binding.

“Glu-Insulin: human recombinant insulin conjugated to two glucose (glucosamine) molecules via a bifunctional maleimide (Sulfo-SMCC/thiol) linker” was tested, and the “bioactivity profile relative to native insulin” value [1] was “do not display any significant difference in their bioactivity profiles”, the “binding of Glu-Insulin to mRBCs” value [2] was “bound to the mRBCs” and the “BG level recovered within 24 h” value [3] was about 500 mg/dL. The “BG level within 1 h” value [3] was under 70 mg/dL, the “BG response after IPGTT” value [4] was “only exhibited a fleeting response” and the “BG levels in healthy mice” value [5] was “significantly decreased BG levels compared to insulin−mRBCs treated mice”. For the same substance, the “binding of Glu-Insulin to free GLUT1 protein” value [6] was “insulin signals could be detected in supernatant if co-incubated with GLUT1 proteins” and the “damage to mRBCs by insulin binding (annexin V)” value [7] was “does not cause significant damage to mRBCs”.
